The text below walks through data of US11643782B2, “Method for controlling growth of microorganisms and/or biofilms in an industrial process” (Kemira Oyj, priority 2017, dated 2023).

Common to all, as to type: cell-based
Experiment [1] relates to Meiothermus silvanus biofilms. The experiment can be described thus: Prevention of biofilm formation (96-microwell peg-lid plates, Crystal Violet staining). Conditions: for Biofilm quantity, Abs. at 595 nm / Biofilm reduction: 48 h contact time. The source says:
(§1) Pure cultures of Meiothermus silvanus, a microbe species commonly found in paper machine biofilms (Ekman J, Journal of Industrial Microbiology & Biotechnology 34:203-211) and Pseudoxanthomonas taiwanensis, another species commonly found in paper machine environments (Desjardins, E & Beaulieu, C, Journal of Industrial Microbiology & Biotechnology 30:141-145) were used to study the efficacy of various chemicals to prevent biofilm formation.
(§2) Biofilm tests were done in either synthetic commercial R2-broth (Lab M Ltd, UK) or fibre-containing synthetic paper machine water, SPW (prepared according to Peltola, et al., J. Ind. Microbiol. Biotechnol. 2011, 38: 1719-1727) using 96-microwell plate wells with peg lids (Thermo Fischer Scientific Inc., USA). Plates were incubated at 45° C. with a rotary shaking (150 rpm) providing high flow in each well.
(§3) For experiments of preventing biofilm formation wells of 96-microwell plates with peg-lids were filled with R2-broth or SPW, inoculated with the pure bacterial cultures and treated with different amounts of chemical compounds to be tested. Peg-lid was put on. After 24 hours the wells were emptied and a fresh solution of pure culture containing SPW or R2 broth with different amounts of test chemicals were added to the wells and the original peg-lid was put back in place. After an additional 24 hours, i.e. 48 hours after starting the test, the wells were emptied, rinsed and the peg lid and wells were left to dry.
(§4) The amount of biofilm formed on the microwells and peg surfaces was quantified with a staining solution by adding 200 μl of 1% Crystal Violet (Merck Millipore KGaA, Germany) in methanol to each well and placing the peg-lid back on. After 3 minutes the wells were emptied and the wells and pegs were rinsed 3 times with tap water. The attached Crystal Violet was dissolved into ethanol and the absorbance at 595 nm was measured. The values shown in the following tables are average absorbance from 8 replicate wells and pegs.
(§5) All absorbance values in Examples 1-8 are given actual measured values. In calculation for biofilm reduction percentages it was taken in account that the SPW alone for 2 days without any bacterial inoculum gave a background value of 0.14.

For experiment [2], the system named is Pseudoxanthomonas taiwanensis biofilms. Put plainly: Removal of existing (preformed) biofilm (96-microwell peg-lid plates, Crystal Violet staining). Conditions: for Biofilm quantity, Abs. at 595 nm / Biofilm reduction: SPW, 45° C., 150 rpm, 24 h pre-growth and 24 h contact time; for Removal of already formed biofilms (in words): synthetic paper machine water, high temperature, fibres present, high flow.
Excerpt: as §1, §2
(§6) For experiments of removing already existing (preformed) biofilm wells of 96-microwell plates with peg-lids were filled with SPW, inoculated with the pure bacterial cultures. Biofilm was grown for 24 hours without addition of any chemical compound to be tested. In some experiments after 24 hours the procedure was repeated by emptying the wells and by addition of a fresh solution of SPW inoculated with pure bacterial culture, again without any test chemical compound. The original peg-lid was put back in place and biofilm was allowed to grow for additional 24 h, i.e. in total 48 h.
(§7) After 24 or 48 hours after starting the test, the wells were emptied and a fresh solution of SPW, inoculated with the pure bacterial cultures and with different amounts of chemical compounds to be tested were added and the original peg-lid was placed back in place. After an additional 2 or 24 hours the wells were emptied, rinsed and the peg lid and wells were left to dry.
as §4, §5

Experiment [3] deals with Meiothermus silvanus biofilms. Described as above. The following applies: for Biofilm quantity, Abs. at 595 nm / Biofilm reduction: SPW, 45° C., 150 rpm, 24 h pre-growth and 24 h contact time.
Excerpt: as §1, §2, §6, §7, §4, §5

Experiment [4] has as its system Pseudoxanthomonas taiwanensis biofilms. Put plainly: Prevention of biofilm formation (96-microwell peg-lid plates, Crystal Violet staining). Conditions: for Biofilm quantity, Abs. at 595 nm / Biofilm reduction / Biofilm quantity, Abs at 595 nm: 48 h contact time.
Excerpt: as §1, §2, §3, §4, §5

The mark [5] stands for this setting: Table 5, dosage 0.06 mg/l active compound, SPW, 45° C., 150 rpm.
Setting [6] is: Table 5, dosage 0.2 mg/l active compound, SPW, 45° C., 150 rpm.
Setting [7] is: Table 9, dosage 0.2 mg/l active compound.
Setting [8] is: Table 9, dosage 0.4 mg/l active compound.
The mark [9] stands for this setting: Table 7, dosage 0.2 mg/l active compound.
The mark [10] stands for this setting: Table 7, dosage 0.6 mg/l active compound.
[11] abbreviates: Table 6, dosage 0.06 mg/l active compound, SPW, 45° C., 150 rpm.
[12] abbreviates: Table 6, dosage 0.2 mg/l active compound, SPW, 45° C., 150 rpm.
[13] abbreviates: dosage 0.2 mg/l active compound.
[14] abbreviates: dosage 0.6 mg/l active compound.
Setting [15] is: active compound, synthetic paper machine water, high temperature, fibres present, high flow.
The mark [16] stands for this setting: dosage 0.2 mg/l active ingredient, SPW, 45° C., 150 rpm.
Where [17] appears, read: dosage 0.6 mg/l active ingredient, SPW, 45° C., 150 rpm.
Where [18] appears, read: dosage 1 mg/l active ingredient, SPW, 45° C., 150 rpm.

For `N#C/C=C/S(=O)(=O)c1ccccc1` [Compound C, (2E)-3-phenylsulphonyl-2-propenenitrile], the “Biofilm quantity, Abs. at 595 nm” value in experiment [1] (setting [5]) is recorded as 0.64; in experiment [1] (setting [6]), 0.15; in experiment [2] (setting [7]), 0.15; in experiment [2] (setting [8]), 0.15. In addition, the Biofilm reduction was 29.7% in experiment [1] (setting [5]), 98.2% in experiment [1] (setting [6]), 98.5% in experiment [2] (setting [7]) and 99.0% in experiment [2] (setting [8]). The “Removal of already formed biofilms (in words)” value (“Removal” below) in experiment [2] is “remove already formed biofilms”.

For `Cc1cc(C)c(S(=O)(=O)/C=C/C#N)c(C)c1` [Compound D, (2E)-3-[(2,4,6-trimethylphenyl)sulphonyl]-2-propenenitrile], in experiment [2] (setting [9]), the “Biofilm quantity, Abs. at 595 nm” value came out at 2.07 and the Biofilm reduction is given as 8.4%. Moreover, in experiment [2] (setting [10]), the “Biofilm quantity, Abs. at 595 nm” value came to 0.18 and the Biofilm reduction stood at 97.9%. Further, in experiment [2], the “Removal” value is reported as “remove already formed biofilms”.

As for `N#C/C=C/S(=O)(=O)c1ccc(C(F)(F)F)cc1` [Compound E, (2E)-3-[(4-trifluormethylphenyl)sulphonyl]-2-propenenitrile], in experiment [1] (setting [11]), the “Biofilm quantity, Abs. at 595 nm” value is 1.43 and the Biofilm reduction turned out to be 38.8%. For the same molecule, in experiment [1] (setting [12]), the “Biofilm quantity, Abs. at 595 nm” value worked out at 0.14 and the Biofilm reduction came out at 99.6%.

With `COc1ccc(S(=O)(=O)/C=C/C#N)cc1` [Compound F, (2E)-3-[(4-methoxyphenyl)sulphonyl]-2-propenenitrile], in experiment [3] (setting [13]), the “Biofilm quantity, Abs. at 595 nm” value is given as 1.21 and the Biofilm reduction is recorded as 6.4%. In addition, in experiment [3] (setting [14]), the “Biofilm quantity, Abs. at 595 nm” value came out at 0.86 and the Biofilm reduction turned out to be 37.3%. Besides, in experiment [3] (synthetic paper machine water, high temperature, fibres present, high flow), the “Removal” value was “remove already formed biofilms”.

Consider `N#CC(Br)(Br)C(N)=O` [DBNPA, 2,2-dibromo-3-nitrilopropionamide], for which the “Dosage required to reach acceptable or noticable biofilm reduction efficacy” value in experiment [1] (setting [15]) and in experiment [4] (setting [15]) was 1 mg/I each time. The “Biofilm quantity, Abs. at 595 nm” value in experiment [1] (setting [16]) is reported as 0.57; in experiment [1] (setting [17]), 0.35; in experiment [1] (setting [18]), 0.15; in experiment [4] (setting [16]), 1.46; in experiment [4] (setting [17]) it was 1.23; in experiment [4] (setting [18]) it was 0.14. Also, the Biofilm reduction in experiment [1] (setting [16]) is 16.9%; in experiment [1] (setting [17]), 60.7%; in experiment [1] (setting [18]), 98.8%; in experiment [4] (setting [16]) it was 12.6%; in experiment [4] (setting [17]) it was 27.8%; in experiment [4] (setting [18]), 99.9%.

Turning to Gramicidin, the “Biofilm quantity, Abs. at 595 nm” value in experiment [1] (dosage 0.2 mg/l, R2-broth) came to 1.40; in experiment [1] (dosage 0.2 mg/l, SPW), 1.33; in experiment [1] (dosage 1 mg/l, R2-broth), 0.66; in experiment [1] (dosage 1 mg/l, SPW), 1.41; in experiment [1] (dosage 3 mg/l, R2-broth), 0.17; in experiment [1] (dosage 3 mg/l, SPW), 0.45. In addition, the “Biofilm quantity, Abs. at 595 nm” value in experiment [1] (dosage 10 mg/l, R2-broth) is on record as 0.14; in experiment [1] (dosage 10 mg/l, SPW) it was 0.19; in experiment [4] (dosage 3 mg/l, R2-broth) it was 2.80; in experiment [4] (dosage 10 mg/l, R2-broth) it was 2.55; in experiment [4] (dosage 25 mg/l, R2-broth), 0.19. The Biofilm reduction in experiment [1] (dosage 0.2 mg/l, R2-broth) is reported as 13.7%; in experiment [1] (dosage 0.2 mg/l, SPW) it was 2.5%; in experiment [1] (dosage 1 mg/l, R2-broth) it was 64.4%; in experiment [1] (dosage 1 mg/l, SPW) it was −4.1%; in experiment [1] (dosage 3 mg/l, R2-broth), 97.9%; in experiment [1] (dosage 3 mg/l, SPW) it was 74.6%. Moreover, the Biofilm reduction is given as 100.0% in experiment [1] (dosage 10 mg/l, R2-broth); 95.9% in experiment [1] (dosage 10 mg/l, SPW); −0.8% in experiment [4] (dosage 3 mg/l, R2-broth); 5.4% in experiment [4] (dosage 3 mg/l, SPW); 8.7% in experiment [4] (dosage 10 mg/l, R2-broth); −1.8% in experiment [4] (dosage 10 mg/l, SPW). Further, the Biofilm reduction in experiment [4] (dosage 25 mg/l, R2-broth) was 98.1%; in experiment [4] (dosage 25 mg/l, SPW) it was −2.2%. For the same molecule, the “Biofilm quantity, Abs at 595 nm” value in experiment [4] (dosage 3 mg/l, SPW) is 2.25; in experiment [4] (dosage 10 mg/l, SPW), 2.41; in experiment [4] (dosage 25 mg/l, SPW), 2.42.
